Assays:
Format in all cases: in vivo
[1] = system: green foxtail (Setaria viridis); assay: Test C postemergence greenhouse test, plant response rating 0-100; details: for Plant response rating, Foxtail, Green: scale 0 to 100
How it was run: (§1)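 Visual rating vs. controls, 0 (no effect) to 100 (complete control), 13–15 d after postemergence treatment. Potted plants, 1- to 4-leaf stage (2–18 cm), greenhouse-held.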

[2] = system: windgrass (Apera spica-venti); assay: as above; details: for Plant response rating, Windgrass: scale 0 to 100
How it was run: as §1

[3] = system: cocklebur (common cocklebur, Xanthium strumarium); assay: as above; details: for Plant response rating, Cocklebur: scale 0 to 100
How it was run: as §1

[4] = system: deadnettle (henbit deadnettle, Lamium amplexicaule); assay: as above; details: for Plant response rating, Deadnettle: scale 0 to 100
How it was run: as §1

[5] = system: downy bromegrass (Bromus tectorum); assay: as above; details: for Plant response rating, Bromegrass, Downy: scale 0 to 100
How it was run: as §1

[6] = system: canarygrass (Phalaris minor); assay: as above; details: for Plant response rating, Canarygrass: scale 0 to 100
How it was run: as §1

[7] = system: woolly cupgrass (Eriochloa villosa); assay: as above; details: for Plant response rating, Cupgrass, Woolly: scale 0 to 100
How it was run: as §1

[8] = system: winter barley (Hordeum vulgare); assay: as above; details: for Plant response rating, Barley: scale 0 to 100
How it was run: as §1

[9] = system: surinam grass (Brachiaria decumbens); assay: as above; details: for Plant response rating, Surinam Grass: scale 0 to 100
How it was run: as §1

[10] = system: goosegrass (Eleusine indica); assay: as above; details: for Plant response rating, Goosegrass: scale 0 to 100
How it was run: as §1

[11] = system: bermudagrass (Cynodon dactylon); assay: as above; details: for Plant response rating, Bermudagrass: scale 0 to 100
How it was run: as §1

[12] = system: waterhemp (common waterhemp, Amaranthus rudis); assay: Test C pre-/postemergence greenhouse test, plant response rating 0-100; details: Preemergence
How it was run: (§2)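 Greenhouse test. Preemergence: seed in loam:sand, sprayed with formulated chemical (solvent + surfactant). Postemergence: 1–4 leaf plants, 2–18 cm, peat-based potting medium. Hold 13–15 d; score visually, 0 (none) to 100 (complete control); dash = not tested.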

[13] = system: barnyardgrass (Echinochloa crus-galli); assay: as above; details: Preemergence
How it was run: as §2

[14] = system: oilseed rape (Brassica napus); assay: as above; details: Preemergence
How it was run: as §2

[15] = system: waterhemp_RES2, (ALS & HPPD resistant common waterhemp, Amaranthus rudis); assay: Test E postemergence greenhouse test, plant response rating 0-100; details: scale 0 to 100
Procedure: At the same time, plants from these crop and weed species and also waterhemp_RES1, (ALS & Triazine resistant common waterhemp, Amaranthus rudis), and waterhemp_RES2, (ALS & HPPD resistant common waterhemp, Amaranthus rudis) were planted in pots containing Redi-Earth® planting medium (Scotts Company, 14111 Scottslawn Road, Marysville, Ohio 43041) comprising spaghnum peat moss, vermiculite, wetting agent and starter nutrients were treated with postemergence applications of test chemicals formulated in the same manner. Plants ranged in height from 2 to 18 cm for postemergence treatments (1- to 4-leaf stage).
Treated plants and controls were maintained in a greenhouse for 14 to 21 days, after which time all species were compared to controls and visually evaluated. Plant response ratings, summarized in Table E, are based on a scale of 0 to 100 where 0 is no effect and 100 is complete control. A dash (-) response means no test result.

## Clc1cc(Cl)cc(-c2n[nH]cc2C(=NN2CCCC2)c2ccccc2)c1 [Compound 30, N-[[3-(3,5-dichlorophenyl)-1H-pyrazol-4-yl]phenylmethylene]-1-pyrrolidinamine]
[1]; 31 g ai/ha
  Plant response rating (0 to 100), Foxtail, Green: 0
[1]; 62 g ai/ha
  Plant response rating (0 to 100), Foxtail, Green: 0
[1]; 125 g ai/ha
  Plant response rating (0 to 100), Foxtail, Green: 0
[1]; 250 g ai/ha
  Plant response rating, Foxtail, Green: 0
[2]; 62 g ai/ha
  Plant response rating (0 to 100), Windgrass: 0
[2]; 125 g ai/ha
  Plant response rating (0 to 100), Windgrass: 0
[2]; 250 g ai/ha
  Plant response rating, Windgrass: 0
[3]; 31 g ai/ha
  Plant response rating (0 to 100), Cocklebur: 10
[4]; 31 g ai/ha
  Plant response rating (0 to 100), Deadnettle: 0
[4]; 62 g ai/ha
  Plant response rating (0 to 100), Deadnettle: 0
[4]; 125 g ai/ha
  Plant response rating (0 to 100), Deadnettle: 0
[4]; 250 g ai/ha
  Plant response rating, Deadnettle: 0
[5]; 31 g ai/ha
  Plant response rating (0 to 100), Bromegrass, Downy: 0
[5]; 62 g ai/ha
  Plant response rating (0 to 100), Bromegrass, Downy: 0
[5]; 125 g ai/ha
  Plant response rating, Bromegrass, Downy: 0
[5]; 250 g ai/ha
  Plant response rating, Bromegrass, Downy: 0
[6]; 31 g ai/ha
  Plant response rating (0 to 100), Canarygrass: 0
[6]; 62 g ai/ha
  Plant response rating (0 to 100), Canarygrass: 0
[6]; 125 g ai/ha
  Plant response rating (0 to 100), Canarygrass: 0
[6]; 250 g ai/ha
  Plant response rating, Canarygrass: 0
[7]; 31 g ai/ha
  Plant response rating (0 to 100), Cupgrass, Woolly: 0
[7]; 62 g ai/ha
  Plant response rating (0 to 100), Cupgrass, Woolly: 0
[7]; 125 g ai/ha
  Plant response rating (0 to 100), Cupgrass, Woolly: 0
[7]; 250 g ai/ha
  Plant response rating, Cupgrass, Woolly: 0
[8]; 31 g ai/ha
  Plant response rating (0 to 100), Barley: 0
[8]; 62 g ai/ha
  Plant response rating (0 to 100), Barley: 0
[8]; 125 g ai/ha
  Plant response rating, Barley: 0
[8]; 250 g ai/ha
  Plant response rating, Barley: 0
[9]; 62 g ai/ha
  Plant response rating (0 to 100), Surinam Grass: 0
[9]; 125 g ai/ha
  Plant response rating (0 to 100), Surinam Grass: 0
[9]; 250 g ai/ha
  Plant response rating, Surinam Grass: 0
[10]; 31 g ai/ha
  Plant response rating (0 to 100), Goosegrass: 0
[10]; 62 g ai/ha
  Plant response rating (0 to 100), Goosegrass: 0
[10]; 125 g ai/ha
  Plant response rating (0 to 100), Goosegrass: 0
[10]; 250 g ai/ha
  Plant response rating, Goosegrass: 0
[11]; 31 g ai/ha
  Plant response rating (0 to 100), Bermudagrass: 0
[11]; 62 g ai/ha
  Plant response rating (0 to 100), Bermudagrass: 0
[11]; 125 g ai/ha
  Plant response rating, Bermudagrass: 0
[11]; 250 g ai/ha
  Plant response rating, Bermudagrass: 0
[12]; 62 g ai/ha
  Plant response rating, Waterhemp: 100
[12]; 125 g ai/ha
  Plant response rating, Waterhemp: 100
[12]; 250 g ai/ha
  Plant response rating, Waterhemp: 100
[12]; 500 g ai/ha
  Plant response rating, Waterhemp: 100
[13]; 62 g ai/ha
  Plant response rating, Barnyardgrass: 0
[13]; 125 g ai/ha
  Plant response rating, Barnyardgrass: 0
[13]; 250 g ai/ha
  Plant response rating, Barnyardgrass: 0
[13]; 500 g ai/ha
  Plant response rating, Barnyardgrass: 0
[14]; 62 g ai/ha
  Plant response rating, Oilseed Rape: 50
[14]; 125 g ai/ha
  Plant response rating, Oilseed Rape: 80
[14]; 250 g ai/ha
  Plant response rating, Oilseed Rape: 85
[14]; 500 g ai/ha
  Plant response rating, Oilseed Rape: 100

## CCn1cc(C(=O)c2cccs2)c(-c2cc(Cl)cc(Cl)c2)n1 [Compound 18]
[15]; 31 g ai/ha
  Plant response rating, Waterhemp_RES2: 65
[15]; 62 g ai/ha
  Plant response rating, Waterhemp_RES2: 80
[15]; 125 g ai/ha
  Plant response rating, Waterhemp_RES2: 85
[15]; 250 g ai/ha
  Plant response rating, Waterhemp_RES2: 90
[15]; 500 g ai/ha
  Plant response rating, Waterhemp_RES2: 95
[1]; 62 g ai/ha
  Plant response rating (0 to 100), Foxtail, Green: 0
[1]; 125 g ai/ha
  Plant response rating (0 to 100), Foxtail, Green: 0
[1]; 250 g ai/ha
  Plant response rating, Foxtail, Green: 0
[1]; 500 g ai/ha
  Plant response rating, Foxtail, Green: 0
[2]; 62 g ai/ha
  Plant response rating (0 to 100), Windgrass: 0
[2]; 125 g ai/ha
  Plant response rating (0 to 100), Windgrass: 0
[2]; 250 g ai/ha
  Plant response rating, Windgrass: 0
[2]; 500 g ai/ha
  Plant response rating, Windgrass: 5
[3]; 62 g ai/ha
  Plant response rating (0 to 100), Cocklebur: 5
[3]; 125 g ai/ha
  Plant response rating (0 to 100), Cocklebur: 5
[3]; 250 g ai/ha
  Plant response rating, Cocklebur: 15
[3]; 500 g ai/ha
  Plant response rating, Cocklebur: 20
[4]; 62 g ai/ha
  Plant response rating (0 to 100), Deadnettle: 20
[4]; 125 g ai/ha
  Plant response rating (0 to 100), Deadnettle: 40
[4]; 250 g ai/ha
  Plant response rating, Deadnettle: 55
[4]; 500 g ai/ha
  Plant response rating, Deadnettle: 60
[5]; 62 g ai/ha
  Plant response rating (0 to 100), Bromegrass, Downy: 0
[5]; 125 g ai/ha
  Plant response rating, Bromegrass, Downy: 0
[5]; 250 g ai/ha
  Plant response rating, Bromegrass, Downy: 0
[5]; 500 g ai/ha
  Plant response rating, Bromegrass, Downy: 0
[6]; 62 g ai/ha
  Plant response rating (0 to 100), Canarygrass: 0
[6]; 125 g ai/ha
  Plant response rating (0 to 100), Canarygrass: 0
[6]; 250 g ai/ha
  Plant response rating, Canarygrass: 0
[6]; 500 g ai/ha
  Plant response rating, Canarygrass: 5
[7]; 62 g ai/ha
  Plant response rating (0 to 100), Cupgrass, Woolly: 5
[7]; 125 g ai/ha
  Plant response rating (0 to 100), Cupgrass, Woolly: 10
[7]; 250 g ai/ha
  Plant response rating, Cupgrass, Woolly: 15
[7]; 500 g ai/ha
  Plant response rating, Cupgrass, Woolly: 20
[8]; 62 g ai/ha
  Plant response rating (0 to 100), Barley: 0
[8]; 125 g ai/ha
  Plant response rating, Barley: 0
[8]; 250 g ai/ha
  Plant response rating, Barley: 0
[8]; 500 g ai/ha
  Plant response rating, Barley: 0
[9]; 62 g ai/ha
  Plant response rating (0 to 100), Surinam Grass: 5
[9]; 125 g ai/ha
  Plant response rating (0 to 100), Surinam Grass: 5
[9]; 250 g ai/ha
  Plant response rating, Surinam Grass: 10
[9]; 500 g ai/ha
  Plant response rating, Surinam Grass: 10
[10]; 62 g ai/ha
  Plant response rating (0 to 100), Goosegrass: 0
[10]; 125 g ai/ha
  Plant response rating (0 to 100), Goosegrass: 0
[10]; 250 g ai/ha
  Plant response rating, Goosegrass: 10
[10]; 500 g ai/ha
  Plant response rating, Goosegrass: 15
[11]; 62 g ai/ha
  Plant response rating (0 to 100), Bermudagrass: 0
[11]; 125 g ai/ha
  Plant response rating, Bermudagrass: 0
[11]; 250 g ai/ha
  Plant response rating, Bermudagrass: 0
[11]; 500 g ai/ha
  Plant response rating, Bermudagrass: 5

Reference: patent US10167262B2, “Herbicidal substituted 3-arylpyrazoles” (FMC CORPORATION, priority 2014, dated 2019)
